How the values were obtained:
[1] = ELISA on biotin-coated plate, bound protein detected with anti-streptavidin antibody-HRP; type: binding; conditions: 0-1.1 μg/well on biotin-coated plate
Experimental: (§1) FIG. 4, panels A and B show data from enzyme-linked immunosorbent assay (ELISA) analysis of recombinant proteins for biotin and Her2-Fc binding ability. Panel A: Streptavidin or ASA was immobilized on biotin-coated plate. Bound protein was detected using an anti-streptavidin antibody-HRP. Panel B: After immobilization of Streptavidin or ASA on biotin-coated plate, Her2-human Fc fusion was added to each plate and bound fusion protein was detected using anti-Her2 antibody and anti-mouse IgG-HRP. The amounts of Streptavidin or ASA fusion protein used in this experiment were: well 1: 0; 2: 0.11 ng; 3: 1.1 ng; 4: 11 ng; 5: 110 ng; 6: 1100 ng.
(§2) The binding of ASA to Biotin and Her2 was determined by a modified ELISA assay. ELISA was performed at room temperature (RT) or 4° C. Purified streptavidin or ASA (0-1.1 μg/well) was immobilized on the biotin-coated ELISA plate (Pierce) for 1 hr at 4° C. in PBS. […] The A450 nm value of the plates was determined using an ELISA reader. Bound streptavidin was detected by the same method using an anti-streptavidin-HRP in PBS (1; 500 dilution; 50 μL/well).
(§3) The ASA fusion protein was tested to determine if it would bind to biotin as well as Her2. […] Bound Her2-Fc was detected by the mouse anti-Her2 antibody (4D5) and the HRP-conjugated anti-mouse IgG antibody.

[2] = target: T1, Her2-human Fc fusion protein (Homo sapiens, UniProt P04626); assay: ELISA for Her2-Fc binding of protein immobilized on biotin-coated plate; conditions: 0-1.1 μg/well immobilized on biotin-coated plate; Her2-Fc 50 ng/well
T1 construct: Her2-human Fc fusion protein that was composed of the ectodomain of Her2 and the Fc of human IgG; purchased Xcyte Therapeutic, Seattle, Wash
Experimental: as §1, §2, §3

[3] = in vivo; cited from earlier work
[4] = test system: T6-17 cells (Her2 transformed cells); assay: MTT cell proliferation assay, T6-17 cells; type: cell-based
Experimental: (§4) FIG. 5, panels A and B show inhibition of cell proliferation by ASA. Effects of ASA treatment, or treatments with streptavidin and the peptide AHNP, on the proliferation of T6-17 (Her2 transformed cells, Panel A) or NR6 (control cells, Panel B) were shown; Cell proliferation was measured by the standard MTT assay performed on poly-HEMA plates (for T6-17) or regular tissue culture plates (for NR6).
(§5) T6-17 and NR6 cells were grown in DMEM medium supplemented with 10% heat inactivated fetal calf serum, L-glutamine (2 mM), penicillin (100 U/ml) and streptomycin (100 μg/ml) at 37° C. in a humidified 5% CO2 atmosphere.
(§6) The MTT assay has been used modified method for measuring cell growth. T6-17 cells or NR6 cells were seeded in poly 2-hydroxyethyl methacrylate coated 96 well plates (50 μl/well, 800 cells/well or 1200 cells/well). Then the Streptavidin or ASA protein or the AHNP peptide were (50 μl/well, 0.69 μM or 6.9 μM) and incubate at 37° C. in a humidified 5% CO2 atmosphere for 48 hr. A total of 25 μl of MTT solution (5 mg/ml in PBS) was added to each well, and after 2 hr of incubation at 37° C., 100 μl of the extraction-buffer (20% w/v SDS, 50% N,N-dimethyl formamide, pH 4.7) were added. After an overnight incubation at 37° C., the optical density at […] was measured using an ELISA reader.

[5] = test system: NR6 cells (control cells); assay: MTT cell proliferation assay, NR6 control cells; type: cell-based; conditions: NR6 control cell line
Experimental: as §4, §5, §6

[6] = test system: T6-17 cells injected subcutaneously into nude mice; assay: T6-17 tumor growth in nude mice; type: in vivo; conditions: for reduction of tumor size: day 14
Experimental: 1 million of T6-17 cells were injected subcutaneously into nude mice to induce the tumor growth. Panel A. Treatment of ASA started from day 0. Panel B. Treatment started on day 2 after tumor were palpable. NCR homozygous athymic (nude) mice (six to eight weeks-old) were purchased from the National Cancer Institute. To induce tumor, 10^6 transformed T6-17 cells were suspended in 100 μl of PBS and injected subcutaneously into the flank of each animal. Animals were maintained in accordance with guidelines of the Institutional Animal Care and Use Committee (IACUC) of the University of […]. Tumor volume was calculated by the formula: π*length*width*Height/6. T6-17 cells were transformed by the over-expression of human Her2/neu […]. […] In one experiment, animals were treated with either streptavidin or ASA (11.25 mg/kg/week). Treatment stared from day 0 and was provided to animals by three subcutaneous injections each week. […] Treatment was also provided to mice by a different administration route in a second experiment, in which intraperitoneal treatment started day 2 after palpable tumor appeared ( 2 cubic mm) (FIG. 6, Panel B). ASA was given at the dose of 15 mg/kg/week, divided into three injections.

Substance | binding to biotin (ELISA) [1] | binding to Her2-Fc fusion (ELISA) [2] | serum half-life [3] | inhibition of cell proliferation ([4]; T6-17 cells, two different concentrations (0.69 μM or 6.9 μM), 48 hr, MTT) | molar concentration of ASA relative to the AHNP peptide necessary to achieve 50% cell growth inhibition in vitro ([4]; in vitro, relative to AHNP peptide) | inhibitory effect on cell proliferation [5] | appearance of palpable tumor prevented until ([6]; 11.25 mg/kg/week, subcutaneous, from day 0) [days] | molar excess of AHNP with comparable activity in reducing tumor growth in vivo ([6]; ASA compared with AHNP) [fold] | reduction of tumor size ([6]; 11.25 mg/kg/week, three subcutaneous injections each week, from day 0) [%] | reduction of tumor size ([6]; intraperitoneal, 15 mg/kg/week in three injections, from day 2 after palpable tumor, vs vehicle control)
streptavidin: Tetrameric biotin-binding protein produced by Streptomyces avidinii; recombinant core used as control [reference compound] | bound to biotin in a dose-dependent manner | didn't bind to the Her2-human Fc fusion protein even at the highest concentration | about 12 hours | – | – | – | – | – | – | –
ASA: Recombinant fusion of AHNP peptide, 11 amino acid linker GGGGSRSNSSS, streptavidin core and C-terminal NSSS linker plus His-tag; forms tetramer | bound to biotin in a dose-dependent manner | able to bind to the Her2-Fc fusion in a dose-dependent manner | – | 20-50% | about 10 times | Inhibitory effects were not observed | 7 | ~30 | 62 | about 47.6%

— patent US7906624B2, “Binding peptidomimetics and uses of the same” (The Trustees of the University of Pennsylvania, priority 2004, dated 2011)
